Legend:
[1] = tested on: HepG-2; assay: Anti-proliferative activity, SRB colorimetric assay; type: cell-based; settings: for IC50: Homo sapiens, HepG2, HepG-2 cancer cell line, SRB assay, read-out: Cell lines (IC50 μM) HepG-2; for anti-proliferative activity against HepG-2, in words: authors' grading of Table 1 values, key not given
[2] = tested on: MCF-7; assay: as above; type: cell-based; settings: for IC50: Homo sapiens, MCF7, MCF-7 cancer cell line, SRB assay, read-out: Cell lines (IC50 μM) MCF-7; for anti-proliferative activity against MCF-7, in words: authors' grading of Table 1 values, key not given
[3] = molecular target: EGFR (Homo sapiens, UniProt P00533); assay: EGFR inhibitory activity, homogeneous luminescence release assay; type: biochemical; settings: reference erlotinib; read-out: EGFR inhibition IC50
Sequence of EGFR (P00533 25-1210): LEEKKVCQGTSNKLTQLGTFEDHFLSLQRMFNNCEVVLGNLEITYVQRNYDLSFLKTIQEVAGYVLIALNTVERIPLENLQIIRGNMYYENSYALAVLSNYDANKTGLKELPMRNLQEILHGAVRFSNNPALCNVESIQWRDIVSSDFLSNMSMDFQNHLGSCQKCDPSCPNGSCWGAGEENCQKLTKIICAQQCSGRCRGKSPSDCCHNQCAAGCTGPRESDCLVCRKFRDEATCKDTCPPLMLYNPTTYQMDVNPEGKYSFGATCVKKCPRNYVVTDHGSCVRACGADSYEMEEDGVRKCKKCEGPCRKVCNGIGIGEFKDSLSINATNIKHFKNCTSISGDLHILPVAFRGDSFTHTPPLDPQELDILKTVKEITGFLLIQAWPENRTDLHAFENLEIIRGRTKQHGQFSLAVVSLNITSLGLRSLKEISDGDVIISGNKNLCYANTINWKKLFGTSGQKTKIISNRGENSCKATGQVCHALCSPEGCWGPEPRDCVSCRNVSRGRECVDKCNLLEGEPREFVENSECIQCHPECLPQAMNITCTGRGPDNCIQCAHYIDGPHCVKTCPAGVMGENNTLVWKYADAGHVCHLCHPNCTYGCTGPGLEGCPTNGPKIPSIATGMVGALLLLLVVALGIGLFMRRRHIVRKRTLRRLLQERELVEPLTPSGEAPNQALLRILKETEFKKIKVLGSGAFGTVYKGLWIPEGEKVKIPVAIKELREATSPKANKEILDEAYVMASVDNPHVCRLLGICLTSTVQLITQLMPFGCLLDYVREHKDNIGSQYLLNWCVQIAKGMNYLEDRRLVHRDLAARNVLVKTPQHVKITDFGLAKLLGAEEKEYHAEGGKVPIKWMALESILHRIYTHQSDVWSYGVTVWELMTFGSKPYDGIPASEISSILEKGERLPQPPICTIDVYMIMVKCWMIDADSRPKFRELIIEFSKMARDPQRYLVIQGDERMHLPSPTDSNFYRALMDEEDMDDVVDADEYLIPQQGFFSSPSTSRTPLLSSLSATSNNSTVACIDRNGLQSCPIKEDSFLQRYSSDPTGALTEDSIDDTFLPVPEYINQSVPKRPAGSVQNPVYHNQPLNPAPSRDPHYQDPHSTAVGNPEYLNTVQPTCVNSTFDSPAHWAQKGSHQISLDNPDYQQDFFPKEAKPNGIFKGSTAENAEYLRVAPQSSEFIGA

[4] = molecular target: VEGFR-2 (Homo sapiens, UniProt P35968); assay: VEGFR-2 inhibitory activity, homogeneous luminescence release assay; type: biochemical; settings: reference sorafenib; read-out: VEGFR-2 inhibition IC50
Sequence of VEGFR-2 (P35968 20-1356): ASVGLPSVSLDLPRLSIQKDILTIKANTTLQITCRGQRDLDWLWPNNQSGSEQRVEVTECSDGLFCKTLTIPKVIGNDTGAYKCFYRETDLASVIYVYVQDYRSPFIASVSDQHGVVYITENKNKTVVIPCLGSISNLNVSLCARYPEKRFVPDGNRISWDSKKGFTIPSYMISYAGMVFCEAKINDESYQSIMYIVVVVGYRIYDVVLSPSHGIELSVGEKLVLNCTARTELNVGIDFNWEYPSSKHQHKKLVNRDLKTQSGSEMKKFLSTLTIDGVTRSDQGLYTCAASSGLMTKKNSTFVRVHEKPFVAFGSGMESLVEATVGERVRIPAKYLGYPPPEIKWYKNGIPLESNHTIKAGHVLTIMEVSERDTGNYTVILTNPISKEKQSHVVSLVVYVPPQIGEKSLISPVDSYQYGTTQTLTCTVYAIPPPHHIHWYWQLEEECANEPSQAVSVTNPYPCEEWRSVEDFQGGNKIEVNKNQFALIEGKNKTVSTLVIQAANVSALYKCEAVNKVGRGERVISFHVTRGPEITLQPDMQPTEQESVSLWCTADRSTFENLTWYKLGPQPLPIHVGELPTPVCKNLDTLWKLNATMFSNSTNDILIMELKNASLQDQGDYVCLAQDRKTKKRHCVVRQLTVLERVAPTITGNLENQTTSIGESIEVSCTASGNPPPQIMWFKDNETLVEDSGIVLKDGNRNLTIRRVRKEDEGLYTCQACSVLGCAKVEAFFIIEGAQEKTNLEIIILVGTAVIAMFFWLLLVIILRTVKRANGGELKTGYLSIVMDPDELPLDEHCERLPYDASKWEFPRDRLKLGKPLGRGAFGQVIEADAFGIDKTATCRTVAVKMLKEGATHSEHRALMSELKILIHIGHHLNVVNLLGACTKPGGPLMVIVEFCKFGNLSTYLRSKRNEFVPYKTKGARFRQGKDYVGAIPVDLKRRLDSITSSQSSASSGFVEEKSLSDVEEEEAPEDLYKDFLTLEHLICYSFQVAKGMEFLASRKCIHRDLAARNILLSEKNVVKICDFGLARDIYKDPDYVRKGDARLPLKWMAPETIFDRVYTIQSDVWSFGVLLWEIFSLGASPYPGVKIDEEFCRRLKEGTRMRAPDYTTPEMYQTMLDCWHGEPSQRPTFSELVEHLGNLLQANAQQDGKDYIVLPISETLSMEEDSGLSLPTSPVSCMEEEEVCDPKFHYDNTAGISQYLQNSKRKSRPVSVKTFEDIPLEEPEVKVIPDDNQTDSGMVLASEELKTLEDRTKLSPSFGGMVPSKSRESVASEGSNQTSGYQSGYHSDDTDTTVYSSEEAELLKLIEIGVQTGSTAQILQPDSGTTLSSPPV
Source text: […]. Briefly, these μM inhibitory concentrations recommend greatly the proposed rationale design for the investigated compounds to act as promising dual EGFR/VEGFR-2 inhibitors.

[5] = tested on: S. aureus; assay: Antibacterial activity, inhibition zone approach; type: cell-based, Staphylococcus aureus; settings: for S. aureus Diameter of inhibition zone (mm): Gram-positive bacteria; for antimicrobial activity with S. aureus, in words: authors' grading of Table 2 values, key not given; for S. aureus % Activity index: gentamicin = 100
[6] = tested on: B. subtilis; assay: Antibacterial activity, inhibition zone approach; type: cell-based, Bacillus subtilis; settings: for B. subtilis Diameter of inhibition zone (mm): Gram-positive bacteria; for antimicrobial activity with B. subtilis, in words: authors' grading of Table 2 values, key not given; for B. subtilis % Activity index: gentamicin = 100
[7] = tested on: E. coli; assay: Antibacterial activity, inhibition zone approach; type: cell-based, Escherichia coli; settings: for E. coli Diameter of inhibition zone (mm): Gram-negative bacteria; for antimicrobial activity with E. coli, in words: authors' grading of Table 2 values, key not given; for E. coli % Activity index: gentamicin = 100
[8] = tested on: P. aeuroginosa; assay: Antibacterial activity, inhibition zone approach; type: cell-based, Pseudomonas aeuroginosa; settings: for P. aeuroginosa Diameter of inhibition zone (mm): Gram-negative bacteria; for antimicrobial activity with P. aeuroginosa, in words: authors' grading of Table 2 values, key not given; for P. aeuroginosa % Activity index: gentamicin = 100
[9] = tested on: C. albicans; assay: Antifungal activity, inhibition zone approach; type: cell-based, Candida albicans; settings: for C. albicans Diameter of inhibition zone (mm): Fungi; for antimicrobial activity with C. albicans, in words: authors' grading of Table 2 values, key not given; for C. albicans % Activity index: ketoconazole = 100
[10] = tested on: A. flavus; assay: Antifungal activity, inhibition zone approach; type: cell-based, Aspergillus flavus; settings: for A. flavus Diameter of inhibition zone (mm): Fungi; for antimicrobial activity with A. flavus, in words: authors' grading of Table 2 values, key not given; for A. flavus % Activity index: ketoconazole = 100
[11] = tested on: HepG2; assay: Cell cycle analysis by flow cytometry; type: cell-based; settings: HepG2 treated with 10b at 13.81 μM; control 36.19%
[12] = tested on: HepG-2; assay: Apoptosis analysis, FITC Annexin-V/PI kit; type: cell-based; settings: HepG-2 treated with 10b at 13.81 μM
Source text: This was accompanied by significant elevations in the percentage of the AnxV-FITC apoptotic cells in both the early (from 0.36 to 14.52%) and late (from 0.21 to 24.45%) apoptotic phases, compared to the control (Fig. 5 and 6). Accordingly, we can confirm the exact mechanism of the anticancer activity of 10b to be due to the programmed apoptosis pathway.
This was done using the FITC Annexin-V/PI kit.[49]

SMILES | IC50 [1] | anti-proliferative activity against HepG-2, in words [1] | IC50 [2] | anti-proliferative activity against MCF-7, in words [2] | IC50 [3] | IC50 [4] | S. aureus Diameter of inhibition zone (mm) [5] | antimicrobial activity with S. aureus, in words [5] | S. aureus % Activity index [5] | B. subtilis Diameter of inhibition zone (mm) [6] | antimicrobial activity with B. subtilis, in words [6] | B. subtilis % Activity index [6] | E. coli Diameter of inhibition zone (mm) [7] | antimicrobial activity with E. coli, in words [7] | E. coli % Activity index [7] | P. aeuroginosa Diameter of inhibition zone (mm) [8] | antimicrobial activity with P. aeuroginosa, in words [8] | P. aeuroginosa % Activity index [8] | C. albicans Diameter of inhibition zone (mm) [9] | antimicrobial activity with C. albicans, in words [9] | other results
Oc1ccc(C2=NNC(c3cccs3)C2)cc1 (stereo not shown) [7a, 4-(5-(thiophen-2-yl)-4,5-dihydro-1H-pyrazol-3-yl)phenol] | 8.13 ± 0.6 µM | very strong | 3.54 ± 0.2 µM | very strong | 266 nM | 509 nM | 15 mm | very strong | 83.3% | 19 mm | very strong | 86.4% | 12 mm | very strong | 57.1% | 17 mm | very strong | 89.5% | 23 mm | very strong | C. albicans % Activity index [9]: 82.1%; A. flavus Diameter of inhibition zone (mm) [10]: 18 mm; antimicrobial activity with A. flavus, in words [10]: very strong; A. flavus % Activity index [10]: 69.2%; melting point: 100 to 102 °C
O=C(SC(=S)N1N=C(c2ccc(O)cc2)CC1c1cccs1)c1ccccc1 (stereo not shown) [18a, Benzoic 3-(4-hydroxyphenyl)-5-(thiophen-2-yl)-4,5-dihydro-1H-pyrazole-1-carbothioic thioanhydride] | 12.9 ± 1 µM | strong | 6.92 ± 0.5 µM | very strong | 436 nM | 344 nM | 13 mm | very strong | 72.2% | 17 mm | very strong | 77.3% | 10 mm | moderate | 47.6% | 15 mm | very strong | 78.9% | 20 mm | very strong | C. albicans % Activity index [9]: 71.4%; A. flavus Diameter of inhibition zone (mm) [10]: 16 mm; antimicrobial activity with A. flavus, in words [10]: very strong; A. flavus % Activity index [10]: 61.5%; melting point: 240 °C
CCOC(=O)CN1N=C(c2ccc(O)cc2)CC1c1cccs1 (stereo not shown) [15a, ethyl 2-(3-(4-hydroxyphenyl)-5-(thiophen-2-yl)-4,5-dihydro-1H-pyrazol-1-yl)acetate] | 21.4 ± 1.5 µM | moderate | 9.48 ± 0.7 µM | very strong | 894 nM | 1140 nM | 10 mm | moderate | 55.5% | 15 mm | strong | 68.2% | 9 mm | moderate | 42.8% | 14 mm | strong | 73.7% | 18 mm | strong | C. albicans % Activity index [9]: 64.3%; A. flavus Diameter of inhibition zone (mm) [10]: 15 mm; antimicrobial activity with A. flavus, in words [10]: moderate; A. flavus % Activity index [10]: 57.7%; melting point: 65 °C
NC(=S)n1nc(-c2ccc(Cl)c(Cl)c2)cc1-c1cccs1 [10b, 3-(3,4-dichlorophenyl)-5-(thiophen-2-yl)-1H-pyrazole-1-carbothioamide] | 13.8 ± 1.1 µM | strong | 23.2 ± 1.8 µM | moderate | 161 nM | 141 nM | 12 mm | very strong | 66.7% | 17 mm | very strong | 77.3% | 9 mm | moderate | 42.8% | 13 mm | very strong | 68.4% | 20 mm | very strong | fold change of S phase population compared to control [11]: 1.37 fold; AnxV-FITC apoptotic cells, late apoptotic phase ([12]; control 0.21%): 24.45%; total apoptosis percentage ([12]; control 1.75): 44.26%; AnxV-FITC apoptotic cells, early apoptotic phase ([12]; control […]): 14.52%; C. albicans % Activity index [9]: 71.4%; A. flavus Diameter of inhibition zone (mm) [10]: 14 mm; antimicrobial activity with A. flavus, in words [10]: moderate; A. flavus % Activity index [10]: 53.8%
